Data published in US5908868A, “Retinol derivatives useful for enhancing immune response” (priority 1995, dated 1999).

Tests used:
fibroblasts = experiment: Expression of immediate early genes; format: cell-based; details: unpublished work
5/2 cells = format: in vitro ADME, human
Procedure: 5/2 cells (10^6 cells in 10 ml HB 101 medium) were incubated with all-trans-[^3 H] retinol (10 uCe/ml). After 24 hours, retinoids were extracted from the washed cell pellet and unlabeled marker retinoids were added. The crude extract was loaded on an analytical reversed-phase C-18 column. Retinoids were eluted with the shown linear gradient of water/methanol/chloroform. The flow rate was 0.5 ml/min. DPM were determined with an on line scintillation counter. Reference retinoids were the all-trans forms of 0: 3,4-didehydroretinoic acid, 1: all-trans-retinoic acid, 2: 3,4-didehydroretinol, 3: retinol, 4: retinyl linoleate, 5: retinyl oleate, 6: retinyl palmitate. Shaded area corresponds to P3. Cross-hatched area corresponds to P1.
Lymphoblastoid 5/2 cells grown in the presence of 10^-6 M retinol were spiked with ^3 H-labeled retinol. After 16 hours the cell pellet was delipidated according to the method of McLean et al. and separated on a reversed phase C-18 HPLC column (FIG. 7). […] Three peaks, P1, P2 and P3, could not be immediately identified. One peak eluting at 36-39 minutes (corresponding 83% methanol 7% water) provisionally called P3, but now known as 14HRR, was unusual because unlike P1 eluting at 31-34 minutes, its relative amount increased when the retinol concentration was lowered or when retinol was given to the cells bound to RBP. […]

CC(C=CC=C(C)C(O)CO)=CC=C1C(C)=CCCC1(C)C (stereo not drawn) [14HRR, 14-hydroxy-4,14-retro-retinol]
expression of immediate early genes (fibroblasts): facilitates the expression of immediate early genes in fibroblasts

CC1=C(/C=C/C(C)=C/C=C/C(C)=C/CO)C(C)(C)CCC1 [retinol, all-trans retinol]
retinoids identified after 3H-retinol (5/2 cells): 13-cis retinol, all-trans retinol, and several retinyl esters were identified | retinoids not detected after 3H-retinol (5/2 cells): Retinoic acid, 3,4-didehydroretinol acid as well as 3,4-didehydroretinol were not detectable
